Reference: publication PMC11324126, “Novel coumarin-6-sulfonamide-chalcone hybrids as glutathione transferase P1-1 inhibitors” (PLOS ONE, 2024)
“Also recorded” adds a separate entry of the source. Like-named read-outs stand apart in the source and are kept apart here. Blank lines part the entries; values can stand above or below the molecule they belong to.

Key:
[1] = MTT cytotoxicity assay, MCF-7; assay type: cell-based; details: human, MCF-7 cells, mean ± SE, triplicate, read-out: CC50 against MCF-7
Procedure: (§1) The MTT colorimetric assay was used to evaluate the in vitro cytotoxicity of 5a, 5f and 5g coumarin derivatives against PC3, DU-145 and MCF-7 cancer cell lines. Cancer cells were inoculated into a 96-well plate (initially at a density of 8 x 10^3 cells/well in 100 μL of culture medium) and were cultivated for 24 h, at 37°C in a CO2 incubator (5%). Different concentrations of 5a, 5f and 5g derivatives (1.5 μΜ to 200 μΜ), were added to cultures and incubated for 48 h. […] The culture medium was then replaced with 100 μL of MTT solution (1 mg/mL) and after 2 h incubation, the solution was aspirated and the produced formazan crystals were dissolved in isopropanol (100 μL). The absorbance was measured at 540 nm. Dose–cell viability graphs were created using GraphPad Prism 9.3.1 and the CC50 values were determined.

hGSTP1-1 [2] = biological target: T1, hGSTP1-1 (Homo sapiens, UniProt P09211); test: hGSTP1-1 enzyme activity/inhibition assay (CDNB and GSH substrates, 340 nm); assay type: biochemical; set-up: key to Enzyme Inhibition (%) (symbol): *: Coumarin derivative 5e did not exhibit significant inhibition; details: for Enzyme Inhibition (%) / IC50 / inhibition at 10 µM: mean ± SE, triplicate; for IC50: concentration-response inhibition, read-out: IC50 towards hGSTP1-1; for inhibition at 10 µM: pH 6.5, 10 μM compound
T1 construct: made in house; host or cells: E. coli
T1 sequence (P09211 whole entry): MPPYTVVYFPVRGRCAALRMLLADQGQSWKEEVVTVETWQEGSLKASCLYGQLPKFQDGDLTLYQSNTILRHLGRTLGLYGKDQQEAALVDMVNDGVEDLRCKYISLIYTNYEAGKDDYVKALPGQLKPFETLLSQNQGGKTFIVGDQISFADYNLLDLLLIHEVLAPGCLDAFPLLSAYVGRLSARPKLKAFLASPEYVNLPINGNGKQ
Procedure: Determination of hGSTP1-1 activity was carried out in potassium phosphate buffer (100 mM, pH 6.5, 1 mL total volume), at 25°C using as substrates CDNB and GSH. The reaction was monitoring at 340 nm for 120 s, as described previously. For inhibition analysis, coumarin derivatives were dissolved in DMSO (100 μΜ) and added to the assay mixture at 10 μΜ final concentration. The mixture was incubated at 25°C for 1 min, prior adding the enzyme sample. The IC50 values were determined from a graph of the remaining GST activity (%) against inhibitor concentration. GraphPad Prism 9.3.1 (GraphPad Prism Software, Inc.) was used for determination of IC50 values. Kinetic inhibition analysis was performed as previously described with minor modifications. Initial velocities using CDNB as a variable substrate (typically 14–1000 μM) were determined in the presence of constant concentration of GSH (2.5 mM) in the absence and presence of the coumarin derivative 5g (0–50 μM). Initial velocities using GSH as a variable substrate (typically 37.5–3750 μΜ) were determined in the presence of 1 mM CDNB in the absence and presence of the coumarin derivative 5g (0–50 μM). Enzyme assays were performed in triplicates and initial velocities were corrected for spontaneous reaction rates.

[3] = MTT cytotoxicity assay, PC3; assay type: cell-based; details: human, PC3 cells, mean ± SE, triplicate, read-out: CC50 against PC3
Procedure: as §1

[4] = MTT cytotoxicity assay, DU-145; assay type: cell-based; details: human, DU-145 cells, mean ± SE, triplicate, read-out: CC50 against DU-145
Procedure: as §1

hGSTP1-1 [5] = biological target: T1, hGSTP1-1; set-up: method as in doi:10.5505/tjb.2012.30301; details: cited from earlier work
HepG2 cells = test system: HepG2 cells; set-up: method as in PMID 29944015; details: read-out: IC50 towards HepG2 cells; cited from earlier work
[6] = 10 μM compound, 25°C, pH 6.5, 10 µM

Enzyme Inhibition (%) (hGSTP1-1 [2]; [6]): 84.6 ± 0.1%
IC50 (hGSTP1-1 [2]): 16.3 µM
inhibition at 10 µM (hGSTP1-1 [2]; 25°C, pH 6.5): > 85%
Structure (SMILES): O=C(C=Cc1ccccc1)c1ccc(NS(=O)(=O)c2ccc3oc(=O)ccc3c2)cc1 [Compound 5a, N-(4-cinnamoylphenyl)-2-oxo-2H-chromene-6-sulfonamide]
CC50 at 48 h [1]: 46.8 ± 5.1 µM
CC50 at 48 h [3]: 25.3 ± 2.2 µM
CC50 at 48 h [4]: 71.4 ± 5.4 µM

inhibition at 10 µM (hGSTP1-1 [2]; 25°C, pH 6.5): 62.8 ± 0.1%
Structure (SMILES): Cc1ccc(C=CC(=O)c2ccc(NS(=O)(=O)c3ccc4oc(=O)ccc4c3)cc2)cc1 [Compound 5b, 2-oxo-N-(4-(3-(p-tolyl)acryloyl)phenyl)-2H-chromene-6-sulfonamide]

inhibition at 10 µM (hGSTP1-1 [2]; 25°C, pH 6.5): 67%
Structure (SMILES): COc1ccc(C=CC(=O)c2ccc(NS(=O)(=O)c3ccc4oc(=O)ccc4c3)cc2)cc1 [Compound 5c, N-(4-(3-(4-methoxyphenyl)acryloyl)phenyl)-2-oxo-2H-chromene-6-sulfonamide]

inhibition at 10 µM (hGSTP1-1 [2]; 25°C, pH 6.5): 59.3 ± 0.1%
Structure (SMILES): COc1ccc(C=CC(=O)c2ccc(NS(=O)(=O)c3ccc4oc(=O)ccc4c3)cc2)c(OC)c1 [Compound 5d, N-(4-(3-(2,4-dimethoxyphenyl)acryloyl)phenyl)-2-oxo-2H-chromene-6-sulfonamide]

Enzyme Inhibition (%) (symbol) (hGSTP1-1 [2]; 10 μM compound, 25°C, pH 6.5): *
Enzyme Inhibition (%) (hGSTP1-1 [2]; 10 μM compound, 25°C, pH 6.5): no activity
Structure (SMILES): COc1cc(C=CC(=O)c2ccc(NS(=O)(=O)c3ccc4oc(=O)ccc4c3)cc2)cc(OC)c1OC [Compound 5e, 2-oxo-N-(4-(3-(3,4,5-trimethoxyphenyl)acryloyl)phenyl)-2H-chromene-6-sulfonamide]

Enzyme Inhibition (%) (hGSTP1-1 [2]; [6]): 86.9 ± 0.0%
IC50 (hGSTP1-1 [2]): 12.7 ± 0.7 µM
inhibition at 10 µM (hGSTP1-1 [2]; 25°C, pH 6.5): > 85%
Structure (SMILES): O=C(C=Cc1ccc(F)cc1)c1ccc(NS(=O)(=O)c2ccc3oc(=O)ccc3c2)cc1 [Compound 5f, N-(4-(3-(4-fluorophenyl)acryloyl)phenyl)-2-oxo-2H-chromene-6-sulfonamide]
CC50 at 48 h [1]: 24.7 ± 1.5 µM
CC50 at 48 h [3]: 14.7 ± 0.9 µM
CC50 at 48 h [4]: 47.3 ± 2.7 µM

Enzyme Inhibition (%) (hGSTP1-1 [2]; [6]): 87.5 ± 0.0%
inhibition constant Ki΄ (hGSTP1-1–CDNB complex) (hGSTP1-1 [2]; CDNB as variable substrate): 19.25 ± 1.20 μΜ
Ki (hGSTP1-1 [2]; CDNB as variable substrate, read-out: inhibition constant Ki (free hGSTP1-1)): 4.69 ± 0.11 µM
inhibition constant Ki΄ (hGSTP1-1 [2]; GSH as variable substrate): 25.39 ± 0.60 μΜ
Ki (hGSTP1-1 [2]; GSH as variable substrate, read-out: inhibition constant Ki): 3.82 ± 0.16 µM
IC50 (hGSTP1-1 [2]): 12.2 ± 0.5 µM
inhibition at 10 µM (hGSTP1-1 [2]; 25°C, pH 6.5): > 85%
Structure (SMILES): O=C(C=Cc1ccc(Cl)cc1)c1ccc(NS(=O)(=O)c2ccc3oc(=O)ccc3c2)cc1 [Compound 5g, N-(4-(3-(4-chlorophenyl)acryloyl)phenyl)-2-oxo-2H-chromene-6-sulfonamide]
CC50 at 48 h [1]: 17.4 ± 2.9 µM
type of inhibition (hGSTP1-1 [2]; kinetic inhibition analysis, Lineweaver-Burk): mixed-type inhibitor; also recorded: non-competitive, purely mixed-type inhibitor
CC50 at 48 h [3]: 11.9 ± 2.5 µM
CC50 at 48 h [4]: 36.6 ± 2.7 µM

inhibition at 10 µM (hGSTP1-1 [2]; 25°C, pH 6.5): 71.1 ± 0.1%
Structure (SMILES): O=C(C=Cc1ccc(Br)cc1)c1ccc(NS(=O)(=O)c2ccc3oc(=O)ccc3c2)cc1 [Compound 5h, N-(4-(3-(4-bromophenyl)acryloyl)phenyl)-2-oxo-2H-chromene-6-sulfonamide]

inhibition at 10 µM (hGSTP1-1 [2]; 25°C, pH 6.5): 45.4 ± 0.1%
Structure (SMILES): O=C(C=Cc1ccc([N+](=O)[O-])cc1)c1ccc(NS(=O)(=O)c2ccc3oc(=O)ccc3c2)cc1 [Compound 5i, N-(4-(3-(4-nitrophenyl)acryloyl)phenyl)-2-oxo-2H-chromene-6-sulfonamide]

Structure (SMILES): O=[N+]([O-])c1ccc(S(=O)(=O)Nc2ccc3c(c2)CC(Cc2ccc(Cl)cc2)=C3)cc1 [compound III]
IC50 (hGSTP1-1 [5]): 10.2 µM

Structure (SMILES): C/C(=N\Nc1nc(-c2ccccc2)cs1)c1ccc(NS(=O)(=O)c2ccc3oc(=O)ccc3c2)cc1 [compound II]
IC50 (HepG2 cells): 3.48 ± 0.28 µM
